Test results from US20060257535A1, “Milk mineral compositions for use with raw meat products” (Glanbia Nutritionals (Ireland) Limited, priority 2005, published 2006).

Experiments:
[1] = Thiobarbituric acid reactive substances (TBARS/TBA) assay of oxidative rancidity; details: for TBA value: mean for entire 14 day study period, 80% oxygen MAP, 2° C
Text: (§1) Thiobarbituric acid assay (TBA) values and color of ground beef in 80% oxygen modified atmosphere packaging were examined. The additive compositions used for each treatment are identified in Table 3.
(§2) Co., of Troy Ohio) with a 0.60 cm plate and finely ground using a 0.32 cm plate. The MM, vitamin E and STP were manually mixed with the meat. Meat portions of about 130 grams each were placed in vacuum pouches. […] The meat samples were packaged in PVC-wrapped containers in 80% oxygen MAP (gas cylinder containing 80% oxygen and 20% carbon dioxide available from Praxair Distribution of Salt Lake City, Utah) to simulate retail packaging conditions and held for 14 days at 2° C., which is essentially the same as conventional retail packaging for ground beef. Thiobarbituric acid assay (TBA) and color readings were taken after 1, 4, 7 and 14 days.
[…]. Oxidation of fat-containing foods leads to the formation of malondialdehyde or derivates of this compound. […]. Duplicate samples (0.5 g) were mixed with 2.5 ml of solution containing 0.375% TBA (Sigma Chem. Co. of St. Louis, Mo.), 15% trichloroacetic acid (TCA) (Mallinckrodt Baker, Inc. of Paris, Ky.) and 0.25 N hydrochloric acid (HCl). The samples were heated for 10 minutes in a boiling water bath (100° C.) to develop a pink color, cooled in tap water and centrifuged (Sorvall Instruments, Model RC 5C, DuPont, Wilmington, Del.) at 6000 rpm for 10 minutes. The absorbance of the supernatant was measured spectrophotometrically (Spectronic 21D, Milton Roy, Rochester, N.Y.) at 532 nm against a blank that contained all of the reagents minus the meat. The malonaldehyde (MDA) concentration was calculated using an extinction coefficient of 1.56×10^5 M-cm^−1. The MDA concentration was converted to TBA number (mg MDA/kg sample) according to Equation (I): [formula] or to TBA number (parts per million) according to Equation (II): TBA number (ppm)=Sample A532×2.77 (II)
Samples were taken from the exterior surface and the interior portions of the meat and analyzed for rancidity using TBA analysis.

[2] = Hunter color redness (a*) measurement
Text: as §1, §2
The Hunter measurement standard uses the following scales: L=lightness, a=green and red and b=blue and yellow. The L*, a* and b* values were measured using a Hunter Lab Miniscan portable colorimeter (Reston, Va.), standardized using a white and black standard tile. The hue angle was calculated using the formula: hue angle=tan^−1(b*/a*).
Larger hue angles are associated with less red color, where hue angle=0 is red and hue angle=90 is yellow. The raw samples were scored for color, where 1=purple, 2=reddish purple, 3=bright red, 4=tan and 5=brown.

| Compound | TBA values ([1]; 0.25% STP and 0.5% STP, 7 and 14 days following packaging, FIG. 1b) | TBA values compared with control ([1]; 0.25% and 0.5% STP, 14 days following packaging) | TBA values compared with 0.25% STP treatment group ([1]; 0.5% STP, 14 days) | TBA value ([1]; STP 0.25% by weight of meat) | TBA value ([1]; STP 0.5% by weight of meat) | TBA values ([1]; higher level of STP (0.5%), after 14 days of storage) | TBA values (effectiveness compared with 0.5% STP) ([1]; lower level of STP (0.25%), after 14 days of storage) | TBA values compared with treatments with vitamin E ([1]; p<0.05) | red color compared with 0.25% STP and controls ([2]; 0.5% STP, after 14 days, FIG. 2b) | color stability of raw ground beef ([2]; MM more than STP) | TBA value ([1]; Vit E 50 ppm in ethanol) | TBA value ([1]; Vit E 50 ppm in mineral oil) | TBA value ([1]; Vit E 100 ppm in ethanol) | TBA value ([1]; Vit E 100 ppm in mineral oil) | TBA values compared with control ([1]; both vitamin E preparations (mineral oil, ethanol)) | antioxidant effects (TBA values) ([1]; vitamin E in mineral oil or in ethanol, FIG. 1c, 1d) | a* values ([2]; highest level of vitamin E in ethanol, by 14 days) | red color compared with controls ([2]; vitamin E in mineral oil, after 7 days) | red color compared with control ([2]; vitamin E in oil or in ethanol, FIG. 2c, 2d) |
| --- | --- | --- | --- | --- | --- | --- | --- | --- | --- | --- | --- | --- | --- | --- | --- | --- | --- | --- | --- |
| O=P(O)(O)OP(=O)(O)OP(=O)(O)O [STP, sodium tripolyphosphate] | low TBA values | significantly lower | significantly lower | 0.65 b | 0.33 c | less than 1 | not as effective | lower | significantly more red color | dramatically increased |  |  |  |  |  |  |  |  |  |
| vitamin E [Vit E] |  |  |  |  |  |  |  |  |  |  | 1.67 a | 1.71 a | 1.61 a | 1.74 a | not significantly different from the control | no antioxidant effects | lowest a* values | significantly less red in color than the controls | did not exhibit any more red color than control samples |
